According to ChEMBL document CHEMBL1133757, “Reporter affinity labels: an o-phthalaldehyde derivative of beta-naltrexamine as a fluorogenic ligand for opioid receptors” (J Med Chem, 2000):

How the values were obtained:
Mu-type opioid receptor = Mu-type opioid receptor (Homo sapiens, UniProt P35372); experiment: Inhibition of [3H]- diprenorphine binding to Opioid receptor mu 1 (83 fmol/mg protein) stably expressed in membranes from CHO cells; type: cell membranes
[1] = molecular target: Delta-type opioid receptor (Homo sapiens, UniProt P41143); experiment: Inhibition of [3H]- diprenorphine binding to Opioid receptor delta 1
[2] = molecular target: Kappa-type opioid receptor (Homo sapiens, UniProt P41145); experiment: Inhibition of [3H]diprenorphine binding to Opioid receptor kappa 1
Kappa-type opioid receptor, sequence (P41145 whole entry): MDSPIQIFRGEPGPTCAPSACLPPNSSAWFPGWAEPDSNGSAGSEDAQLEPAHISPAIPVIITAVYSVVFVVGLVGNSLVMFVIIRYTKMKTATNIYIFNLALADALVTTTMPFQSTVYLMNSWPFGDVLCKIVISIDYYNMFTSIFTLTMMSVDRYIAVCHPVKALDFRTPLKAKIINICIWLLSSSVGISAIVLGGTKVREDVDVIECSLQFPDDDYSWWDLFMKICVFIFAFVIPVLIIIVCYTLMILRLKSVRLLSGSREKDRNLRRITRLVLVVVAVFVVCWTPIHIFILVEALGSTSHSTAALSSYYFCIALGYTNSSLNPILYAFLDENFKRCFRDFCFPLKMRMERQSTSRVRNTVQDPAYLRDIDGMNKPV

Delta-type opioid receptor, sequence (P41143 whole entry): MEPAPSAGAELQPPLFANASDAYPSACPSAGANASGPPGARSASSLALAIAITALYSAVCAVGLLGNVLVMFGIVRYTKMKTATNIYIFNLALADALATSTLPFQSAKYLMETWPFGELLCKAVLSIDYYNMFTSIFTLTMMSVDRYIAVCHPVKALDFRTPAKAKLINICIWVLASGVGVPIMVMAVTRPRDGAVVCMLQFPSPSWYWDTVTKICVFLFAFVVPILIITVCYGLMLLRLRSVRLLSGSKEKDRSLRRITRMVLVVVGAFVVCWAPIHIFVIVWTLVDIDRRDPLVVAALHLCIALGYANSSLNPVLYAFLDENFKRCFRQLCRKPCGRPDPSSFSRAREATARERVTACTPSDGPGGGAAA
Mu-type opioid receptor, sequence (P35372 whole entry): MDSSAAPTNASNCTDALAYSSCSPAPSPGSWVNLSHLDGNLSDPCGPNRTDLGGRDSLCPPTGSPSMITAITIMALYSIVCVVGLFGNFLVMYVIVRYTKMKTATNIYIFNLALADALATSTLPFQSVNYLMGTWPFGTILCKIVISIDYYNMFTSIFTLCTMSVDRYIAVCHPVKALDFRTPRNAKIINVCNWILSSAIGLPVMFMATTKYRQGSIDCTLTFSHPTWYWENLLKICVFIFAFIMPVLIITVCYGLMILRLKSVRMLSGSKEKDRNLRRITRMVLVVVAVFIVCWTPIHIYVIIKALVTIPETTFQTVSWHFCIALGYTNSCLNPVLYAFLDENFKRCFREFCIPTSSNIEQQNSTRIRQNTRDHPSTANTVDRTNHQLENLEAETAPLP

SMILES: O=Cc1ccc(C(=O)NCC(=O)N[C@@H]2CC[C@@]3(O)[C@H]4Cc5ccc(O)c6c5C3(CCN4CC3CC3)C2O6)cc1C=O (stereo partly drawn)
- Ki (Mu-type opioid receptor): 450 pM
- Ki [1]: 2570 pM
- Ki [2]: 700 pM
